The source of these data is PubChem BioAssay (NCI).

Several values for one entry are separate records, joined by “and”; a condition that tells them apart may be missing. Equal entries are not always repeated.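 96-well plates; 48 h exposure; 5 concentrations. Endpoints by linear interpolation between flanking doses. Not reached: highest tested concentration assigned. At the GI50, growth is halved. TGI: total growth inhibition.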 Some results are limits rather than exact numbers.

Test systems include TK-10 renal; SN12C renal; CAKI-1 renal; 786-0 renal; SF-295 CNS; HOP-92 NSCLC; HCT-116 colon; SK-OV-3 ovarian; BT-549 breast; HCC-2998 colon.
Test in all cases: NCI anticancer screen, dose series, 48 h

Consider `Cc1cc(O)c(C2=NN(c3ccc(S(N)(=O)=O)cc3)C(/C=C/c3ccccc3)C2)cc1Cl` (stereo not drawn), for which the GI50 in the test on TK-10 renal was 14.8 µM; in the test with SN12C renal, 11.1 µM; with CAKI-1 renal, 15.3 µM; in the test on 786-0 renal, 4.09 µM; in the test on SF-295 CNS, 2360 nM; in the test on HOP-92 NSCLC it was 2.36 µM. For the same compound, the GI50 with HCT-116 colon is 2.4 µM; with SK-OV-3 ovarian, 5.52 µM; with BT-549 breast, 6.12 µM; with HCC-2998 colon, 9890 nM. Further, the TGI is 29.9 µM with TK-10 renal; 25.6 µM in the test on SN12C renal; 87.7 µM with CAKI-1 renal; 12.5 µM with 786-0 renal; 11.9 µM in the test on SF-295 CNS; 8.48 µM in the test on HOP-92 NSCLC. Also, the TGI with HCT-116 colon came to 14.6 µM; with SK-OV-3 ovarian it was 17.9 µM; with BT-549 breast, 21.3 µM; in the test on HCC-2998 colon, 30.3 µM.
On to `COc1ccc2c(c1)-c1nn(CCCN(C)C)c3ccc([N+](=O)[O-])c(c13)N2`, for which the GI50 was 0.345 µM and 0.809 µM in the test with TK-10 renal; 175 nM and 389 nM in the test on SF-295 CNS; 0.192 µM and 0.764 µM with HOP-92 NSCLC; 0.175 µM and 0.866 µM in the test with SK-OV-3 ovarian; 148 nM and 728 nM in the test on HCC-2998 colon. Further, the TGI was 4.69 µM and 7.86 µM in the test on TK-10 renal; 3.68 µM and 10.1 µM in the test with SN12C renal; 4.63 µM and 6.34 µM in the test with CAKI-1 renal; 7.68 µM and 12.2 µM in the test on 786-0 renal; 3.76 µM and 3.07 µM in the test with SF-295 CNS; 1.77 µM and 4.97 µM with HOP-92 NSCLC. The TGI was 4.02 µM and 4.42 µM in the test with HCT-116 colon; 1.86 µM and 7.69 µM in the test with SK-OV-3 ovarian; 7.19 µM with BT-549 breast; 1.73 µM and 12.2 µM in the test on HCC-2998 colon.
With `COC1CC(N)C(O)C(C)O1` (stereo not drawn), the TGI in the test on SN12C renal, with CAKI-1 renal, in the test with 786-0 renal, in the test with SF-295 CNS, in the test with HOP-92 NSCLC and with HCT-116 colon was greater than 100 µM each time. Moreover, the TGI with SK-OV-3 ovarian, in the test on BT-549 breast and with HCC-2998 colon was greater than 100 µM each time.
`CN1CCN(c2nc(-c3csc(-c4cccs4)n3)cc3ccccc23)CC1`: the GI50 was 1.98 µM with TK-10 renal; 1.81 µM with SN12C renal; 1.61 µM in the test with CAKI-1 renal; 1.64 µM in the test on 786-0 renal; 1820 nM in the test on SF-295 CNS; 1.44 µM in the test on HOP-92 NSCLC. For the same compound, the GI50 in the test with HCT-116 colon was 1.76 µM; with BT-549 breast, 1.82 µM; in the test on HCC-2998 colon it was 1720 nM. Also, the TGI in the test on TK-10 renal stood at 3.65 µM; in the test with SN12C renal it was 3.47 µM; in the test with CAKI-1 renal it was 3.01 µM; in the test with 786-0 renal it was 3.15 µM; with SF-295 CNS, 3.39 µM; in the test with HOP-92 NSCLC, 3.75 µM. The TGI in the test on HCT-116 colon was found to be 3.36 µM; in the test on BT-549 breast, 3.94 µM; in the test with HCC-2998 colon, 3.4 µM.
With `CC(=O)/C=C/c1ccc(OCc2ccc(Cl)cc2)cc1`, the GI50 in the test with TK-10 renal is 827 µM; in the test on SN12C renal it was 893 µM; with 786-0 renal, 718 µM; in the test on SF-295 CNS it was 679000 nM; with HOP-92 NSCLC, 372 µM; in the test on HCT-116 colon, greater than 1000 µM. Further, the GI50 is greater than 1000 µM in the test with SK-OV-3 ovarian, 136 µM in the test with BT-549 breast and 473000 nM with HCC-2998 colon. For the same compound, the TGI with TK-10 renal, with SN12C renal, with 786-0 renal, with SF-295 CNS, in the test on HOP-92 NSCLC and with HCT-116 colon was greater than 1000 µM throughout. In addition, the TGI in the test on SK-OV-3 ovarian, in the test with BT-549 breast and in the test on HCC-2998 colon was greater than 1000 µM each time.
`CC1(C)Cc2c(Br)c(Br)c(Br)c(OCC(O)CN3CCN(c4ccccn4)CC3)c2O1` (stereo not drawn): the GI50 in the test with TK-10 renal is 14.3 µM; in the test on SN12C renal, 14.4 µM; in the test on 786-0 renal, 12.5 µM; in the test on SF-295 CNS, 6110 nM; in the test on HOP-92 NSCLC, 4.87 µM; in the test on HCT-116 colon, 5.8 µM. The GI50 with SK-OV-3 ovarian was 33.2 µM; in the test on BT-549 breast, 11.6 µM; in the test with HCC-2998 colon it was 3680 nM. In addition, the TGI with TK-10 renal worked out at 30.8 µM; in the test with SN12C renal it was 28.4 µM; in the test with 786-0 renal, 26.1 µM; with SF-295 CNS, 21.4 µM; with HOP-92 NSCLC it was 19.8 µM; in the test on HCT-116 colon it was 23.5 µM. For the same compound, the figures for the TGI in the test on SK-OV-3 ovarian, in the test with BT-549 breast and in the test on HCC-2998 colon were greater than 100 µM, 26 µM and 13.7 µM, respectively.
As to `COc1cnc2c(c1)C(=O)c1c-2n(CCCN2CCC(O)CC2)c(=O)c2cc(Cl)ccc12`, the GI50 was 13 µM with TK-10 renal; 0.0729 µM in the test with CAKI-1 renal; 0.28 µM with 786-0 renal; 165 nM in the test with SF-295 CNS; 15.5 µM with HOP-92 NSCLC; 0.0987 µM in the test on HCT-116 colon. In addition, the GI50 in the test on SK-OV-3 ovarian is 0.341 µM; in the test on BT-549 breast, 9.9 µM; with HCC-2998 colon it was 1590 nM. Besides, the TGI in the test with TK-10 renal was determined as 28.7 µM; in the test with CAKI-1 renal, 15.1 µM; in the test with 786-0 renal it was 1.36 µM; in the test with SF-295 CNS, 1.67 µM; in the test with HOP-92 NSCLC, 34.8 µM; with HCT-116 colon, 2.18 µM. Further, the values for the TGI in the test with SK-OV-3 ovarian, with BT-549 breast and in the test with HCC-2998 colon were 17.5 µM, 25.9 µM and 11.1 µM, respectively.
Turning to `COC(=O)C(C(=O)OC)C(Br)C(Br)C(Br)c1ccccc1` (stereo not drawn), the GI50 is 14 µM with SN12C renal; 4.97 µM with CAKI-1 renal; 11.9 µM in the test on 786-0 renal; 18900 nM with SF-295 CNS; 11.8 µM in the test on HOP-92 NSCLC; 2 µM with HCT-116 colon. The figures for the GI50 with SK-OV-3 ovarian, with BT-549 breast and with HCC-2998 colon were 23.6 µM, 14.4 µM and 21000 nM, respectively. In addition, the TGI with SN12C renal was found to be 27.3 µM; in the test with CAKI-1 renal, 17.7 µM; in the test with 786-0 renal, 25.3 µM; with SF-295 CNS, 37.3 µM; in the test on HOP-92 NSCLC it was 25.3 µM; in the test with HCT-116 colon, 3.82 µM. Moreover, the TGI came out at 72.3 µM in the test on SK-OV-3 ovarian, 27.9 µM in the test on BT-549 breast and 37.8 µM with HCC-2998 colon.
For the compound `C/C(=N\NC(=S)N1CCCCCC1)c1cccc2cccnc12`, the TGI is greater than 100 µM with TK-10 renal; 2.42 µM with CAKI-1 renal; greater than 86.9 µM with 786-0 renal; greater than 21 µM in the test on SF-295 CNS; greater than 100 µM in the test with HOP-92 NSCLC; greater than 67.1 µM with HCT-116 colon. Also, the results for the TGI with SK-OV-3 ovarian, with BT-549 breast and in the test on HCC-2998 colon were greater than 81.5 µM, greater than 92.4 µM and greater than 100 µM, respectively.
